Test results: patent US20190117670A1, “LONGER-ACTING PROGESTIN PRODRUG CONTRACEPTIVES” (Evestra, Inc., priority 2017, published 2019)

Legend:
[1] = tested on: cycling rats of Sprague-Dawley strain; assay: Estrous suppression assay (long term injectable contraceptive), anti-ovulatory activity in female rat model; type: in vivo; conditions: single s.c. injection of milled suspension, adult female rats, vaginal smear until cycling re-established
Procedure: A stainless steel grinding bowl with a lid and seal along with three 10 mm stainless steel balls were used to formulate suspensions for injection. The compounds were weighed and added to the grinding bowl and steel balls. 1.5 mL of formulation vehicle was added to the grinding bowl, via pipette. The milling conditions used as listed: 20 minutes, 20 Hz. After milling, the suspension was transferred to a volumetric flask. Formulation vehicle was used to dilute the milled suspension to produce the desired injection dose.
Protocol: Testing Long Term Injectable Contraceptive
Adult female rats (180-200 g body weight) were used for the study (adapted over 1 week before starting the study).
For each compound, two doses were tested (2 and 4 mg/rat).
Long acting properties of each preparation had been determined in an estrous suppression assay using virgin, mature (180-200 g) cycling rats of Sprague-Dawley strain. Upon receipt the animals were smeared daily (procedure described as below) for cyclicity and those who were showing two consecutive cycles were used for the study. Each animal was injected subcutaneously (s.c) with 0.5 ml of the test preparation (in the vehicle as described above) on the same day regardless of the stage of the cycle. Each compound was initially tested in 6 rats. Everyday excluding weekend, smears were taken starting on the day after injection and continued until such time that cornification of vaginal epithelium was observed and cycling was re-established (Bialy G, Blye R P, Enever R P, Naqvi R H, Lindberg M C. Long-acting contraceptive agents: structure activity relationships in a series of norethisterone and levonorgestrel esters. Steroids 1983, v 41, p 361).
Epithelium and lamina propria of the vagina undergo characteristic changes during the cycle. This cyclical changes was used in rodents to stage cycle diagnosis (1). During the cycle, it comes to a complete replacement of the epithelium. In order to determine the stage of the cycle, vaginal solution/mucus was collected as follows. The rat was fixed with one hand. With the other hand, a small moistened cotton swab (2-3 mm diameter) was inserted into the vagina and removed by gently rotating cell material. This was done with caution, since excessive irritation could induce a pseudopregnancy stage in animals. A drop of water on a slide was applied and dabbed the cotton swab in it. The smear was assessed under the microscope (Nikon Eclipse Ti, Magnification: 10×0.25) (Nelson J F, Felicio L S, Randall P K, Sims C, Finch C E. A longitudinal study of estrous cyclicity in aging C57BL/6J mice: I. Cycle frequency, length and vaginal cytology. Biol Reprod. 1982 September; 27(2):327-39).
The smear of diestrous is characterized by some neutrophils and a few small degenerated, irregularly shaped epithelial cells.
The microscopic image of the smear contains a moderate number of epithelial cells with large nuclei, which are usually visible as cell clusters.
The lamina propria leukocytes migrate into the epithelium. The smear is characterized by many big horny epithelial cells.
In metestrous stage, masses of polymorphonuclear cells with some cornified epithelial cells in the smear will become visible.

[2] = cited from earlier work
[3] = 3 month injectable product Depo Provera; cited from earlier work

| Compound | Rat Anti-ovulatory Activity Days +/− 2 ([1]; 2 mg/rat) [days] | also measured |
| --- | --- | --- |
| C[C@H](O)C(=O)[C@@]1(C)CCC2C3CCC4=CC(=O)CCC4=C3CC[C@@]21C (some centres unmarked) [EC213 TMG, reference compound] | 19 |  |
| C#C[C@]1(OC(=O)CCC)CCC2C3CCC4=CC(=O)CCC4C3CC[C@@]21CC (some centres unmarked) [EC600 LB, Levonorgestrel butanoate, reference compound] | 33 | contraceptive effect in the clinic [2]: failed in the clinic to reach a contraceptive effect for up to 6 month |
| C#C[C@]1(OC(=O)COc2cccc(S(N)(=O)=O)c2)CCC2C3CCC4=CC(=O)CCC4C3CC[C@@]21CC (some centres unmarked) [EC601] | 10 | Rat Anti-ovulatory Activity Days +/− 2 ([1]; 4 mg/rat): 34 days |
| C#C[C@]1(OC(=O)COc2ccc(S(N)(=O)=O)cc2)CCC2C3CCC4=CC(=O)CCC4C3CC[C@@]21CC (some centres unmarked) [EC624] | 20.5 |  |
| C#C[C@]1(OC(=O)COc2ccccc2)CCC2C3CCC4=CC(=O)CCC4C3CC[C@@]21CC (some centres unmarked) [EC625] | 43 | Rat Anti-ovulatory Activity Days +/− 2 ([1]; 4 mg/rat): 69 days |
| C#C[C@]1(OC(=O)CCc2ccccc2)CCC2C3CCC4=CC(=O)CCC4C3CC[C@@]21CC (some centres unmarked) [EC626] |  | Rat Anti-ovulatory Activity Days +/− 2 ([1]; 4 mg/rat): 20 days |
| C#C[C@]1(OC(=O)/C=C/c2ccccc2)CCC2C3CCC4=CC(=O)CCC4C3CC[C@@]21CC (some centres unmarked) [EC627] |  | Rat Anti-ovulatory Activity Days +/− 2 ([1]; 4 mg/rat): 6 days |
| C#C[C@]1(OC(=O)COc2cccc(C)c2)CCC2C3CCC4=CC(=O)CCC4C3CC[C@@]21CC (some centres unmarked) [EC628] |  | Rat Anti-ovulatory Activity Days +/− 2 ([1]; 4 mg/rat): 36 days |
| C#C[C@]1(OC(=O)COc2ccc(C)cc2)CCC2C3CCC4=CC(=O)CCC4C3CC[C@@]21CC (some centres unmarked) [EC629] |  | Rat Anti-ovulatory Activity Days +/− 2 ([1]; 4 mg/rat): 44.8 days |
| C#C[C@]1(OC(=O)COc2cccc(Cl)c2)CCC2C3CCC4=CC(=O)CCC4C3CC[C@@]21CC (some centres unmarked) [EC630] |  | Rat Anti-ovulatory Activity Days +/− 2 ([1]; 4 mg/rat): 46.5 days |
| C#C[C@]1(OC(=O)COc2ccc(Cl)cc2)CCC2C3CCC4=CC(=O)CCC4C3CC[C@@]21CC (some centres unmarked) [EC631] | 33.5 |  |
| C#C[C@]1(OC(=O)COc2ccccc2C)CCC2C3CCC4=CC(=O)CCC4C3CC[C@@]21CC (some centres unmarked) [EC632] | 8.5 |  |
| C#C[C@]1(OC(=O)COc2ccccc2Cl)CCC2C3CCC4=CC(=O)CCC4C3CC[C@@]21CC (some centres unmarked) [EC633] | 16.3 |  |
| C#C[C@]1(OC(=O)COc2ccc(OC)cc2)CCC2C3CCC4=CC(=O)CCC4C3CC[C@@]21CC (some centres unmarked) [EC634] | 30 |  |
| C#C[C@]1(OC(=O)COc2ccccc2OC)CCC2C3CCC4=CC(=O)CCC4C3CC[C@@]21CC (some centres unmarked) [EC635] | 13 |  |
| C#C[C@]1(OC(=O)COc2cccc(OC)c2)CCC2C3CCC4=CC(=O)CCC4C3CC[C@@]21CC (some centres unmarked) [EC636] | 13 |  |
| C#C[C@]1(OC(=O)[C@H](C)Oc2ccccc2)CCC2C3CCC4=CC(=O)CCC4C3CC[C@@]21CC (some centres unmarked) [EC638] | 8 |  |
| C#C[C@]1(OC(=O)COc2cccc(F)c2)CCC2C3CCC4=CC(=O)CCC4C3CC[C@@]21CC (some centres unmarked) [EC639] | 31 |  |

| Compound | Rat Anti-ovulatory Activity Days +/− 2 ([1]; 2 mg/rat) [days] | also measured |
| --- | --- | --- |
| C#C[C@]1(OC(=O)COc2ccc(F)cc2)CCC2C3CCC4=CC(=O)CCC4C3CC[C@@]21CC (some centres unmarked) [EC640] | 31 |  |
| C#C[C@]1(OC(=O)COc2cccnc2)CCC2C3CCC4=CC(=O)CCC4C3CC[C@@]21CC (some centres unmarked) [EC641] | 23 |  |
| C#C[C@]1(OC(=O)COc2ccccc2F)CCC2C3CCC4=CC(=O)CCC4C3CC[C@@]21CC (some centres unmarked) [EC642] | 41 |  |
| C#C[C@]1(OC(=O)CCc2ccccc2OC)CCC2C3CCC4=CC(=O)CCC4C3CC[C@@]21CC (some centres unmarked) [EC643] | 3 |  |
| C#C[C@]1(OC(=O)COc2ccc3c(c2)OCO3)CCC2C3CCC4=CC(=O)CCC4C3CC[C@@]21CC (some centres unmarked) [EC644] | 20 |  |
| C#C[C@]1(OC(=O)COc2ccc(S(C)(=O)=O)cc2)CCC2C3CCC4=CC(=O)CCC4C3CC[C@@]21CC (some centres unmarked) [EC645] | 31 |  |
| C#C[C@]1(OC(=O)CNc2ccccc2)CCC2C3CCC4=CC(=O)CCC4C3CC[C@@]21CC (some centres unmarked) [EC646] | 13 |  |
| C#C[C@]1(OC(=O)CSc2ccccc2)CCC2C3CCC4=CC(=O)CCC4C3CC[C@@]21CC (some centres unmarked) [EC647] | 20 |  |
| C#C[C@]1(OC(=O)COc2ccc(S(N)(=O)=O)cc2Cl)CCC2C3CCC4=CC(=O)CCC4C3CC[C@@]21CC (some centres unmarked) [EC648] | 18 |  |
| C#C[C@]1(OC(=O)COc2ccc(S(N)(=O)=O)cc2C)CCC2C3CCC4=CC(=O)CCC4C3CC[C@@]21CC (some centres unmarked) [EC649] | 18.5 |  |
| C#C[C@]1(OC(=O)COc2ccc(S(N)(=O)=O)c(Cl)c2)CCC2C3CCC4=CC(=O)CCC4C3CC[C@@]21CC (some centres unmarked) [EC650] | 18.5 |  |
| C#C[C@]1(OC(=O)COc2ccccc2)CCC2C3CCC4=CC(=O)CCC4C3C(=C)C[C@@]21CC (some centres unmarked) [EC651] | 52 |  |
| C#C[C@]1(OC(=O)COc2cc(C)on2)CCC2C3CCC4=CC(=O)CCC4C3CC[C@@]21CC (some centres unmarked) [EC652] | 27 |  |
| C#C[C@]1(OC(=O)COc2ccc(S(N)(=O)=O)c(F)c2)CCC2C3CCC4=CC(=O)CCC4C3CC[C@@]21CC (some centres unmarked) [EC653] | 15 |  |
| C#C[C@]1(OC(=O)COc2cccc(-c3ccccc3)c2)CCC2C3CCC4=CC(=O)CCC4C3CC[C@@]21CC (some centres unmarked) [EC654] | 8 |  |
| C#C[C@]1(OC(=O)COc2ccc(-c3ccccc3)cc2)CCC2C3CCC4=CC(=O)CCC4C3CC[C@@]21CC (some centres unmarked) [EC655] | 37 |  |
| C#C[C@]1(OC(=O)COc2ccc(C#N)cc2)CCC2C3CCC4=CC(=O)CCC4C3CC[C@@]21CC (some centres unmarked) [EC658] | 29 |  |
| CC(=O)O[C@]1(C(C)=O)CC[C@H]2[C@@H]3C[C@H](C)C4=CC(=O)CC[C@]4(C)[C@H]3CC[C@@]21C [MPA, medroxyprogesterone acetate, reference compound] | 22 | Rat Anti-ovulatory Activity Days +/− 2 ([1]; 4 mg/rat): 40 days; undesirable effects [3]: increase of insulin levels, reduction of bone mass density, weight gain and enhanced risks for HIV infections |
